Measurements taken from ChEMBL document CHEMBL1134746, “[3-cis-3,5-Dimethyl-(1-piperazinyl)alkyl]-bis-(4'-fluorophenyl)amine analogues as novel probes for the dopamine transporter” (Bioorg Med Chem Lett, 2001).

What was measured:
Mus musculus [1] = test: Tested for rate of horizontal activity during a 30-min period after administration of compound at a concentration of 10 mg/kg; assay type: functional
Mus musculus [2] = test: Tested for rate of horizontal activity during a 30-min period after administration of compound at a concentration of 30 mg/kg; assay type: functional
Mus musculus [3] = test: Tested for rate of horizontal activity during a 30-min period after administration of compound at a concentration of 50 mg/kg; assay type: functional
Mus musculus [4] = test: Tested for rate of horizontal activity during a 30-min period after administration of compound at a concentration of 5 mg/kg; assay type: functional
[5] = molecular target: Sodium-dependent serotonin transporter (Rattus norvegicus, UniProt P31652); test: Binding affinity at Serotonin transporter using [3H]citalopram as radioligand from rat brain
[6] = molecular target: Norepinephrine transporter (Rattus norvegicus, UniProt Q9WTR4); test: Binding affinity at norepinephrine transporter using [3H]nisoxetine as radioligand from rat brain
[7] = molecular target: Sodium-dependent dopamine transporter (Rattus norvegicus, UniProt P23977); test: Binding affinity at Dopamine transporter by displacing [3H]WIN-35428 from rat caudate putamen; assay type: tissue-based
[8] = tested on: Monoamine transporters; Norepinephrine & dopamine (Rattus norvegicus); test: Selectivity ratio of DAT to that of NET receptor
[9] = tested on: Monoamine transporters; serotonin & dopamine (Rattus norvegicus); test: Selectivity ratio for DAT to SERT evaluated
Mus musculus [10] = test: Tested for rate of horizontal activity during a 30-min period after administration of compound at a concentration of 100 mg/kg; assay type: functional
Mus musculus [11] = test: Tested for rate of horizontal activity during a 30-min period after administration of compound at a concentration of 3 mg/kg; assay type: functional
Mus musculus [12] = test: Tested for rate of horizontal activity during a 30-min period after administration of compound at a concentration of 0.1 mg/kg; assay type: functional
Mus musculus [13] = test: Tested for rate of horizontal activity during a 30-min period after administration of compound at a concentration of 1.0 mg/kg; assay type: functional
Mus musculus [14] = test: Tested for rate of horizontal activity during a 30-min period after administration of compound at a concentration of 0.3 mg/kg; assay type: functional
[15] = Selectivity ratio of DAT to that of NET receptor; assay type: functional
[16] = Selectivity ratio for DAT to SERT evaluated; assay type: functional

Norepinephrine transporter, sequence (Q9WTR4 whole entry): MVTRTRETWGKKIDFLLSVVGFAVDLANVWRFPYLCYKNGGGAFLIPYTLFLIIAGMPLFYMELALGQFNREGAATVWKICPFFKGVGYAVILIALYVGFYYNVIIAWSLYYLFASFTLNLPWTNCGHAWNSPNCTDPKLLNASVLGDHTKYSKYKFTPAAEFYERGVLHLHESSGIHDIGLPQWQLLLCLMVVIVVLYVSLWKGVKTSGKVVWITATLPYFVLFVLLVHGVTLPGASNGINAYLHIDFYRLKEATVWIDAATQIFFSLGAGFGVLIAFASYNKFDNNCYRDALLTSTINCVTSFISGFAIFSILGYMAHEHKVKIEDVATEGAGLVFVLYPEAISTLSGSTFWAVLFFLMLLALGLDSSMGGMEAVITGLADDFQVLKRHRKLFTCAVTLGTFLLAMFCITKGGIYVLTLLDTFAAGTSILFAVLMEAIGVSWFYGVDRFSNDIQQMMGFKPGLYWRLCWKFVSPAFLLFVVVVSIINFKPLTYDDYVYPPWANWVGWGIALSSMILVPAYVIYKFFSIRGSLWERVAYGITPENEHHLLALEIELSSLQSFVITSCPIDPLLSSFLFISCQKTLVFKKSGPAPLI
Sodium-dependent serotonin transporter, sequence (P31652 whole entry): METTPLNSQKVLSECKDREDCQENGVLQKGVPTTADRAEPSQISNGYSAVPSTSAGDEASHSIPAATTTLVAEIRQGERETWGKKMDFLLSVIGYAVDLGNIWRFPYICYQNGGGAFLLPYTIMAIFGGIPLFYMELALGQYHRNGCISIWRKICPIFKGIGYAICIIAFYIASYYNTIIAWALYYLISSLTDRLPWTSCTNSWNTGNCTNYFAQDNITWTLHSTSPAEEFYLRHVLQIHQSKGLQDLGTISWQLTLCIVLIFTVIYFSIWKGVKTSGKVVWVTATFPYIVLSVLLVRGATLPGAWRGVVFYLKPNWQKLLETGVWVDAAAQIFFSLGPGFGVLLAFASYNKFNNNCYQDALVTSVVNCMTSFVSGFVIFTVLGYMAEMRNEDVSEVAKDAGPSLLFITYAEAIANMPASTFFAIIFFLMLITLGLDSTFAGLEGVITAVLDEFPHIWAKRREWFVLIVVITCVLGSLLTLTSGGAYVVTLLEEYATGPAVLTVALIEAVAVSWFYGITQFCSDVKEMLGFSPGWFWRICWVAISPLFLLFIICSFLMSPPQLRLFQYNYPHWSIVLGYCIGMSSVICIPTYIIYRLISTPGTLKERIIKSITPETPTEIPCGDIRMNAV
Sodium-dependent dopamine transporter, sequence (P23977 whole entry): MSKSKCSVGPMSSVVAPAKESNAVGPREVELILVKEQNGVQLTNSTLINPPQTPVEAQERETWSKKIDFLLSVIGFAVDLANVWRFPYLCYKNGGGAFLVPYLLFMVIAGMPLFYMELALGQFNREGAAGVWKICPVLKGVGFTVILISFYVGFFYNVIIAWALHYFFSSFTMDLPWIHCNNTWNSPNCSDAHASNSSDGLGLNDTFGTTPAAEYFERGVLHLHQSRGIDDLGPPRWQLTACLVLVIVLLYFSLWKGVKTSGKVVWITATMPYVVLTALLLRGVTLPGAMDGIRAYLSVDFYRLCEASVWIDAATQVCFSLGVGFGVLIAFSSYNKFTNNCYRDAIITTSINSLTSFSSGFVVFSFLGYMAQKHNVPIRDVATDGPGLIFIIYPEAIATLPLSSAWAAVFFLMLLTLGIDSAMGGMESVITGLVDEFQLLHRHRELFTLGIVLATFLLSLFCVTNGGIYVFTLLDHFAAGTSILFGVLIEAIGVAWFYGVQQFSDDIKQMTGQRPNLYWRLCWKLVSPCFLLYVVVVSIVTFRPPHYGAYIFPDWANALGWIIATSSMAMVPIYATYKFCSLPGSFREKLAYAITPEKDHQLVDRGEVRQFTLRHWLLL

Compound	Horizontal activity (Mus musculus [1]) [Counts min-1]	Horizontal activity (Mus musculus [2]) [Counts min-1]	Ki [5] [µM]	Ki [6] [µM]	Ki [7] [µM]	Ratio [8]	Ratio [9]	Horizontal activity (Mus musculus [10]) [Counts min-1]	Horizontal activity (Mus musculus [11]) [Counts min-1]	other results
COC(=O)[C@@H]1C2CC[C@@H](C[C@@H]1OC(=O)c1ccccc1)N2C (single isomer, unassigned) [COCAINE]	500	600								Horizontal activity (Mus musculus [3]): 550 Counts min-1; Horizontal activity (Mus musculus [4]): 300 Counts min-1
C[C@@H]1CN(CCCN(c2ccc(F)cc2)c2ccc(F)cc2)C[C@@H](C)N1CCc1ccc(Cl)c(Cl)c1			4.3	> 100	0.131					
C[C@@H]1CN(CCCN(c2ccc(F)cc2)c2ccc(F)cc2)C[C@@H](C)N1			13.1	16.9	0.0832	203	158			
Fc1ccc(C(OCCN2CCN(CCCc3ccccc3)CC2)c2ccc(F)cc2)cc1 [VANOXERINE]	300	400						175	175	
C[C@@H]1CN(CCCN(c2ccc(F)cc2)c2ccc(F)cc2)C[C@@H](C)N1CCCc1ccccc1	~250	~215	2.13	1.02	0.0176	60	121	~50	~240	Horizontal activity (Mus musculus [12]): ~200 Counts min-1; Horizontal activity (Mus musculus [13]): ~250 Counts min-1; Horizontal activity (Mus musculus [14]): ~210 Counts min-1
C[C@@H]1CN(CCCN(c2ccccc2)c2ccccc2)C[C@@H](C)N1CCc1ccc(Cl)c(Cl)c1			5.01	> 30	0.261					Ratio [15]: > 115; Ratio [16]: 19
CC1CN(CCCn2c3ccccc3c3ccccc32)C[C@@H](C)N1 (single isomer, unassigned) [RIMCAZOLE]	~250	~220	1.71					~0	~175	
C[C@@H]1CN(CCCN(c2ccccc2)c2ccccc2)C[C@@H](C)N1CCCc1ccccc1			1.22	3.64	0.061	60	20			
C[C@@H]1CN(CCCN(c2ccccc2)c2ccccc2)C[C@@H](C)N1			70.9	6.81	0.813	8	87			
